# Literature values, collected in patent US20150080442A1, “TRANSMUCOSAL DRUG DELIVERY SYSTEM” (PHARMACEUTICAL PRODUCTIONS INC., priority 2013, published 2015).
# Experiments:
# [1] = pH 6.8
mean absolute oral bioavailability,Structure (SMILES),nicotine in the free base form [1]
approximately 40%,CN(C)CCc1c[nH]c2ccc(C[C@H]3COC(=O)N3)cc12 [Zolmitriptan],–
–,CN1CCCC1c1cccnc1 (centres unmarked) [nicotine],about 10%
